Reference: patent publication US20240092784A1, “CONDENSED HETEROCYCLIC COMPOUND” (NISSAN CHEMICAL CORPORATION, priority 2020, published 2024)
Where a name gives a salt, the structure may show the parent alone.

Each molecule was assayed against human SPR (Homo sapiens (Human), UniProt P35270) (assay: Evaluation Example 2: Measurement of human SPR inhibitory activity (seven concentrations, sepiapterin absorbance at 420 nm)). Settings: Evaluation Example 2, seven concentrations 0.14 nM to 100 nM, 240 minutes at room temperature, read-out: IC50.
Type: biochemical
Method in brief: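 His-tagged full-length human SPR (1-261) was expressed in E. coli and the tag removed. Enzyme at 150 ng/mL in 100 mM Tris-HCl pH 7.5/0.01% BSA was mixed with compound (0.14–100 nM, seven points), 120 μM sepiapterin and 160 μM NADPH, both as added-solution concentrations. After 240 min at room temperature, remaining sepiapterin was read at 420 nm to give percent inhibition.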

Chain of human SPR (P35270 whole entry): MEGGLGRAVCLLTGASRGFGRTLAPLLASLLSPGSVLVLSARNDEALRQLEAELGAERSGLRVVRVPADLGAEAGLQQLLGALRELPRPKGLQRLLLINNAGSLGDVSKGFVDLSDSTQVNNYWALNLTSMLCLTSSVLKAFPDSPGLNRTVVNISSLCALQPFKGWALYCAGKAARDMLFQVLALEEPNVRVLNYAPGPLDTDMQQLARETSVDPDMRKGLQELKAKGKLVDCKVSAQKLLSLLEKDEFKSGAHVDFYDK

| SMILES | IC50 |
| --- | --- |
| CC(C)(C)Cn1c(=O)c(C(=O)NC2CC2)c(O)n2nc(-c3[nH]ncc3Cl)cc12 [Synthesis Example 305, 2-(4-Chloro-1H-pyrazol-5-yl)-N-cyclopropyl-7-hydroxy-4-neopentyl-5-oxo-4,5-dihydropyrazolo[1,5-a]pyrimidine-6-carboxamide] | 2.24 nM |
| CCc1nn2c(O)c(C(=O)NC3CC3)c(=O)n(CC(C)C)c2c1/C=C/C(=O)N1CCOCC1 [compound 586, (E)-N-Cyclopropyl-2-ethyl-7-hydroxy-4-isobutyl-3-(3-morpholino-3-oxoprop-1-en-1-yl)-5-oxo-4,5-dihydropyrazolo[1,5-a]pyrimidine-6-carboxamide] | 0.99 nM |
| Cc1nn2c(O)c(C(=O)NC3CC3)c(=O)n(CC(C)C)c2c1/C=C/C(=O)N1CCC[C@H]1C(C)(C)O [Synthesis Example 677, (S,E)-N-Cyclopropyl-7-hydroxy-3-(3-(2-(2-hydroxypropan-2-yl)pyrrolidin-1-yl)-3-oxoprop-1-en-1-yl)-4-isobutyl-2-methyl-5-oxo-4,5-dihydropyrazolo[1,5-a]pyrimidine-6-carboxamide] | 0.95 nM |
| COCCN(C)C(=O)/C=C/c1cnn2c(O)c(C(=O)NC3CC3)c(=O)n(CC(C)C)c12 [compound 519, (E)-N-Cyclopropyl-7-hydroxy-4-isobutyl-3-(3-((2-methoxyethyl)(methyl)amino)-3-oxoprop-1-en-1-yl)-5-oxo-4,5-dihydropyrazolo[1,5-a]pyrimidine-6-carboxamide] | 0.68 nM |
| Cc1nn2c(O)c(C(=O)NC3CC3)c(=O)n(CC(C)C)c2c1/C=C/C(=O)N1CCCC12CCN(C(=O)OC(C)(C)C)CC2 [Synthesis Example 661, Tert-butyl (E)-1-(3-(6-(cyclopropylcarbamoyl)-7-hydroxy-4-isobutyl-2-methyl-5-oxo-4,5-dihydropyrazolo[1,5-a]pyrimidin-3-yl)acryloyl)-1,8-diazaspiro[4.5]decane-8-carboxylate] | 2.48 nM |
| Cc1nn2c(O)c(C(=O)NC3CC3)c(=O)n(CC(C)C)c2c1/C=C/C(=O)N1CC2CCC(C1)C2(F)F [Synthesis Example 651, (E)-N-Cyclopropyl-3-(3-(8,8-difluoro-3-azabicyclo[3.2.1]octan-3-yl)-3-oxoprop-1-en-1-yl)-7-hydroxy-4-isobutyl-2-methyl-5-oxo-4,5-dihydropyrazolo[1,5-a]pyrimidine-6-carboxamide] | 1.19 nM |
| CN1Cc2c(nn3c(O)c(C(=O)NC4CC4)c(=O)n(CC(C)(C)C)c23)NC1=O [Synthesis Example 406, N-Cyclopropyl-8-hydroxy-3-methyl-5-neopentyl-2,6-dioxo-1,2,3,4,5,6-hexahydropyrazolo[1,5-a:3,4-d′]dipyrimidine-7-carboxamide] | 0.93 nM |
| CC(C)Cn1c(=O)c(C(=O)NC2CC2)c(O)n2nc(N)c(/C=C/C(=O)N3CCOC[C@H]3C)c12 [Synthesis Example 418, (R,E)-2-Amino-N-cyclopropyl-7-hydroxy-4-isobutyl-3-(3-(3-methylmorpholino)-3-oxoprop-1-en-1-yl)-5-oxo-4,5-dihydropyrazolo[1,5-a]pyrimidine-6-carboxamide hydrochloride] | 0.61 nM |
| Cc1nn2c(O)c(C(=O)NC3CC3)c(=O)n(CC(C)C)c2c1/C=C/C(=O)N1CC[C@H](C(C)(C)O)C1 [Synthesis Example 623, (S,E)-N-Cyclopropyl-7-hydroxy-3-(3-(3-(2-hydroxypropan-2-yl)pyrrolidine-1-yl)-3-oxoprop-1-en-1-yl)-4-isobutyl-2-methyl-5-oxo-4,5-dihydropyrazolo[1,5-a]pyrimidine-6-carboxamide] | 1.27 nM |
| CO[C@H]1CCN(C(=O)/C=C/c2c(C)nn3c(O)c(C(=O)NC4CC4)c(=O)n(CC(C)C)c23)C1 [compound 577, (S,E)-N-Cyclopropyl-7-hydroxy-4-isobutyl-3-(3-(3-methoxypyrrolidin-1-yl)-3-oxoprop-1-en-1-yl)-2-methyl-5-oxo-4,5-dihydropyrazolo[1,5-a]pyrimidine-6-carboxamide] | 1.1 nM |
| O=C(NC1CC1)c1c(O)n2nc(Nc3cnccn3)cc2n(CC2CCOCC2)c1=O [Synthesis Example 350, N-Cyclopropyl-7-hydroxy-5-oxo-2-(pyrazin-2-ylamino)-4-((tetrahydro-2H-pyran-4-yl)methyl)-4,5-dihydropyrazolo[1,5-a]pyrimidine-6-carboxamide] | 0.75 nM |
| CC(=O)N1CCCC2(CCCN2C(=O)/C=C/c2c(C)nn3c(O)c(C(=O)NC4CC4)c(=O)n(CC(C)C)c23)C1 (stereo not shown) [Synthesis Example 663, (E)-3-(3-(7-Acetyl-1,7-diazaspiro[4.5]decan-1-yl)-3-oxoprop-1-en-1-yl)-N-cyclopropyl-7-hydroxy-4-isobutyl-2-methyl-5-oxo-4,5-dihydropyrazolo[1,5-a]pyrimidine-6-carboxamide] | 1.41 nM |
| Cc1nn2c(O)c(C(=O)NC3CC3)c(=O)n(CC(C)C)c2c1/C=C/C(=O)N1[C@@H](C)COC[C@@H]1C [compound 567, N-Cyclopropyl-3-((E)-3-((3S,5S)-3,5-dimethylmorpholino)-3-oxoprop-1-en-1-yl)-7-hydroxy-4-isobutyl-2-methyl-5-oxo-4,5-dihydropyrazolo[1,5-a]pyrimidine-6-carboxamide] | 0.69 nM |
| Cc1nn2c(O)c(C(=O)NC3CC3)c(=O)n(CC(C)C)c2c1/C=C/C(=O)N1CCCC12CC2 [Synthesis Example 652, (E)-N-Cyclopropyl-7-hydroxy-4-isobutyl-2-methyl-5-oxo-3-(3-oxo-3-(4-azaspiro[2.4]heptan-4-yl)prop-1-en-1-yl)-4,5-dihydropyrazolo[1,5-a]pyrimidine-6-carboxamide] | 2.18 nM |
| CCc1nn2c(O)c(C(=O)NC3CC3)c(=O)n(CC(C)C)c2c1/C=C/C(=O)N1CCOC[C@@H]1C [Synthesis Example 653, (S,E)-N-Cyclopropyl-2-ethyl-7-hydroxy-4-isobutyl-3-(3-(3-methylmorpholino)-3-oxoprop-1-en-1-yl)-5-oxo-4,5-dihydropyrazolo[1,5-a]pyrimidine-6-carboxamide] | 0.74 nM |
| CC(C)Cn1c(=O)c(C(=O)NC2CC2)c(O)n2ncc(/C=C/C(=O)N(C)CC(C)(C)O)c12 [compound 518, (E)-N-Cyclopropyl-7-hydroxy-3-(3-((2-hydroxy-2-methylpropyl)(methyl)amino)-3-oxoprop-1-en-1-yl)-4-isobutyl-5-oxo-4,5-dihydropyrazolo[1,5-a]pyrimidine-6-carboxamide] | 0.66 nM |
| CC(C)(C)Cn1c(=O)c(C(=O)NC2CC2)c(O)n2nc(CN3CCCCC3)cc12 [Synthesis Example 274, N-Cyclopropyl-7-hydroxy-4-neopentyl-5-oxo-2-(piperidin-1-ylmethyl)-4,5-dihydropyrazolo[1,5-a]pyrimidine-6-carboxamide] | 9.46 nM |
| CC(C)Cn1c(=O)c(C(=O)NC2CC2)c(O)n2nc3c(c12)CCC(=O)N3 [Synthesis Example 404, N-Cyclopropyl-4-hydroxy-1-isobutyl-2,8-dioxo-1,2,7,8,9,10-hexahydropyrido[2′,3′:3,4]pyrazolo[1,5-a]pyrimidine-3-carboxamide] | 0.63 nM |
| CC(C)(C)Cn1c(=O)c(C(=O)NC2CC2)c(O)n2nc(-c3n[nH]c4ncccc34)cc12 [Synthesis Example 306] | 9.43 nM |
| Cc1nn2c(O)c(C(=O)NC3CC3)c(=O)n(CC(C)C)c2c1/C=C/C(=O)N1C[C@@H](C)OC[C@H]1C [Synthesis Example 644, N-Cyclopropyl-3-((E)-3-((2R,5R)-2,5-dimethylmorpholino)-3-oxoprop-1-en-1-yl)-7-hydroxy-4-isobutyl-2-methyl-5-oxo-4,5-dihydropyrazolo[1,5-a]pyrimidine-6-carboxamide] | 0.91 nM |
| CC(C)(C)Cn1c(=O)c(C(=O)NC2CC2)c(O)n2nc3c(c12)CN(C1CCC(F)(F)CC1)C(=O)N3 [Synthesis Example 407, N-Cyclopropyl-3-(4,4-difluorocyclohexyl)-8-hydroxy-5-neopentyl-2,6-dioxo-1,2,3,4,5,6-hexahydropyrazolo[1,5-a:3,4-d′]dipyrimidine-7-carboxamide] | 1.23 nM |
| CC(C)Cn1c(=O)c(C(=O)NC2CC2)c(O)n2ncc(C(=O)NCc3cnccn3)c12 [Synthesis Example 220, N6-Cyclopropyl-7-hydroxy-4-isobutyl-5-oxo-N3-(pyrazin-2-ylmethyl)-4,5-dihydropyrazolo[1,5-a]pyrimidine-3,6-dicarboxamide] | 0.79 nM |

Same assay, conditions: sepiapterin absorbance, Table 41, read-out: concentration at 50% inhibition of human SPR (IC50)

| SMILES | IC50 |
| --- | --- |
| Cc1nn2c(O)c(C(=O)NC3CC3)c(=O)n(CC(C)C)c2c1/C=C/C(=O)N1C[C@@H](F)[C@H](F)C1 (single isomer, unassigned; isomer a) [Synthesis Example 755, N-Cyclopropyl-3-((E)-3-(trans-3,4-difluoropyrrolidin-1-yl)-3-oxoprop-1-en-1-yl)-7-hydroxy-4-isobutyl-2-methyl-5-oxo-4,5-dihydropyrazolo[1,5-a]pyrimidine-6-carboxamide (Isomer A)] | 0.61 nM |
| Cc1nn2c(O)c(C(=O)NC3CC3)c(=O)n(CC(C)C)c2c1/C=C/C(=O)N1CCOCC12CC2 [Synthesis Example 706, (E)-N-Cyclopropyl-7-hydroxy-4-isobutyl-2-methyl-5-oxo-3-(3-oxo-3-(7-oxa-4-azaspiro[2.5]octan-4-yl)prop-1-en-1-yl)-4,5-dihydropyrazolo[1,5-a]pyrimidine-6-carboxamide] | 0.82 nM |
| CC(C)Cn1c(=O)c(C(=O)NC2CC2)c(O)n2ncc(/C=C/C(=O)N(C)Cc3cccnc3)c12 [Synthesis Example 712, (E)-N-Cyclopropyl-7-hydroxy-4-isobutyl-3-(3-(methyl(pyridin-3-ylmethyl)amino)-3-oxoprop-1-en-1-yl)-5-oxo-4,5-dihydropyrazolo[1,5-a]pyrimidine-6-carboxamide] | 1.19 nM |
